From ChEMBL document CHEMBL4130530, “Lucky Switcheroo: Dramatic Potency and Selectivity Improvement of Imidazoline Inhibitors of Human Carbonic Anhydrase VII” (ACS Med Chem Lett, 2017)

Tests used:
Carbonic anhydrase 2 = Carbonic anhydrase 2 (Homo sapiens, UniProt P00918); test: Inhibition of recombinant human carbonic anhydrase 2 incubated for 15 mins prior to testing measured for 10 to 100 secs by phenol red based stopped-flow CO2 hydration assay
Carbonic anhydrase 7 = Carbonic anhydrase 7 (Homo sapiens, UniProt P43166); test: Inhibition of recombinant human carbonic anhydrase 7 incubated for 15 mins prior to testing measured for 10 to 100 secs by phenol red based stopped-flow CO2 hydration assay
Carbonic anhydrase 4 = Carbonic anhydrase 4 (Homo sapiens, UniProt P22748); test: Inhibition of recombinant human carbonic anhydrase 4 incubated for 15 mins prior to testing measured for 10 to 100 secs by phenol red based stopped-flow CO2 hydration assay
Carbonic anhydrase 1 = Carbonic anhydrase 1 (Homo sapiens, UniProt P00915); test: Inhibition of recombinant human carbonic anhydrase 1 incubated for 15 mins prior to testing measured for 10 to 100 secs by phenol red based stopped-flow CO2 hydration assay
Carbonic anhydrase 1, sequence (P00915 whole entry): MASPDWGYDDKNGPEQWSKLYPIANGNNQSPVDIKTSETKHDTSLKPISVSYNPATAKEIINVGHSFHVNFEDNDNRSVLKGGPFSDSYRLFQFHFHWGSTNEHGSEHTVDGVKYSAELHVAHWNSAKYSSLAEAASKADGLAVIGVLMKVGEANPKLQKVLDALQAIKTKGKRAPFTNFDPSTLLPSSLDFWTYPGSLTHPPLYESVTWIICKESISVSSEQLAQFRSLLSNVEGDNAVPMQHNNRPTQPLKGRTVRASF

Carbonic anhydrase 7, sequence (P43166 whole entry): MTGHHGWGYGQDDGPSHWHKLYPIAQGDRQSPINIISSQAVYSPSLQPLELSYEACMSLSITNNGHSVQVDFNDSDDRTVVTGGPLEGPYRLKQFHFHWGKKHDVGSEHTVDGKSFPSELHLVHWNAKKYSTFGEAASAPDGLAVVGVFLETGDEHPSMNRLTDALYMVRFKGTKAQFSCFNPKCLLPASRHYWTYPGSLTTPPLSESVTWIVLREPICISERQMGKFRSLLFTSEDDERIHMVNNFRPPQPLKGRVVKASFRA
Carbonic anhydrase 4, sequence (P22748 whole entry): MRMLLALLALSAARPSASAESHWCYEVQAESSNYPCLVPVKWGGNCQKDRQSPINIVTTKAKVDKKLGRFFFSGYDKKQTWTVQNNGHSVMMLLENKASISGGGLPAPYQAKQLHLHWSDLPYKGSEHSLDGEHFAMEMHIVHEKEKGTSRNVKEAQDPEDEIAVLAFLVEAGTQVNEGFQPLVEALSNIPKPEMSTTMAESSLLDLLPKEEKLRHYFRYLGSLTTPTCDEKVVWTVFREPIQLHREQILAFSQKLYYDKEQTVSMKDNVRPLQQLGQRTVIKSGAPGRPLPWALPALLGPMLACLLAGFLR

| Compound | Ki (Carbonic anhydrase 2) | Ki (Carbonic anhydrase 7) | Ki (Carbonic anhydrase 4) | Ki (Carbonic anhydrase 1) |
| --- | --- | --- | --- | --- |
| NS(=O)(=O)c1ccc(C2=NCCN2c2cccnc2)cc1 | 848 nM |  |  |  |
| NS(=O)(=O)c1ccc(C2=NCCN2c2cncnc2)cc1 | 703 nM |  |  |  |
| NS(=O)(=O)c1ccc(C2=NCCN2c2ccc(F)cc2)cc1 | 742 nM |  |  |  |
| Cc1ccccc1N1CCN=C1c1ccc(S(N)(=O)=O)cc1 | 61.7 nM |  |  |  |
| NS(=O)(=O)c1ccc(N2CCN=C2c2ccc(Cl)cc2)cc1 | 46.7 nM | 269 nM | 8140 nM | 960 nM |

More lines, in order of falling Ki (Carbonic anhydrase 2), values ahead:

| Ki (Carbonic anhydrase 2) | Ki (Carbonic anhydrase 7) | Ki (Carbonic anhydrase 4) | Ki (Carbonic anhydrase 1) | Compound |
| --- | --- | --- | --- | --- |
| 866 nM |  |  |  | CCOc1ccccc1N1CCN=C1c1ccc(S(N)(=O)=O)cc1 |
| 724 nM |  |  |  | COc1ccc(N2CCN=C2c2ccc(S(N)(=O)=O)cc2)cc1OC |
| 376 nM |  |  |  | NS(=O)(=O)c1ccc(C2=NCCN2c2ccccc2)cc1 |
| 182 nM |  |  |  | NS(=O)(=O)c1ccc(C2=NCCN2c2ccc(Cl)cc2)cc1 |
| 76.1 nM | 303 nM | 9730 nM | 2340 nM | NS(=O)(=O)c1ccc(N2CCN=C2c2ccc(F)cc2)cc1 |
| 53.3 nM |  |  |  | COc1ccc(N2CCN=C2c2ccc(S(N)(=O)=O)cc2)cc1 |
